`Cc1noc2ccc([N+](=O)[O-])cc12` gave a melting point of 84.5 to 86.5 °C.
With `COC(=O)c1cc(N)c(Cl)c(S(=O)(=O)n2cccc2)c1` the melting point was 178 to 181 °C.
`Cc1nc2ccccc2nc1S(=O)Cc1ccccc1N(C)C` (stereo not given) showed a melting point of 68 to 70 °C.
In the case of `Cn1cccc1C(=O)c1ccc2ccccc2c1`, the melting point is reported as 108 to 110 °C.
`N#Cc1nn(-c2c(Cl)cc(C(F)(F)F)cc2Cl)c(N)c1-c1ccc(Br)s1` showed a melting point of 214 °C.
Work on `CC(C)Cn1c(=O)n(C)c(=O)c2c(SCCN(C)C)n(Cc3cccc4ccccc34)cc21` yielded a melting point of 140 to 144 °C.
`COc1cccc(CN2CC=C(/C=C/c3ccccc3)CC2)c1` showed a melting point of 75 to 77 °C.
For `Cn1nc(-c2ccccc2)c(N2CCOCC2)c(C=NO)c1=O`, the melting point was 182 to 183 °C.
With `COCCOc1cc(N(C)S(=O)(=O)c2ccccn2)c2[nH]c(C3=NCC(CC(N)=O)S3)cc2c1` (stereo not given) the melting point was 100 to 102 °C.
For `CCOC(=O)c1nn(-c2ccccc2C)c(=O)c2c(N)scc12`, the melting point was 209 to 210 °C.
`O=C(O)C1=Cc2cc(-c3ccccc3)ccc2OC1C(F)(F)F` (stereo not given) showed a melting point of 197 to 198 °C.
With `CCNC(C)CN1CCc2c(c(=O)oc3ccccc23)C1` (stereo not given) the melting point was 104 to 105 °C.
For `CC(=O)c1ccc(S)cc1`, the melting point was 71 °C.
`COC1=CC(=O)OC1=C(COC(C)=O)C(C)C(C)=O` (stereo not given) showed a melting point of 54 to 56 °C.
For `CC(=O)Oc1ccccc1C(=O)C1c2ccccc2C(=O)N1CCO[N+](=O)[O-]` (stereo not given), the melting point was 81 to 83 °C.
`Cc1ccc(S(=O)(=O)NC(CSCC(=O)O)C(=O)O)cc1` (stereo not given) gave a melting point of 152 °C.
In the case of `O=c1nc(C2CCCCC2)c2cc(Cl)ccc2[nH]1`, the melting point is reported as 270 °C.
Work on `CCCCCN1C(=O)C2(COc3cc4c(cc32)OCO4)c2c(Cl)ccc(Cl)c21` (stereo not given) yielded a melting point of 106 to 108 °C.
In the case of `Cc1cc(-c2cccc(C(F)(F)F)c2)n2nc(C(F)(F)F)nc2n1`, the melting point is reported as 133 to 134 °C.
In the case of `O=C(Nc1ccc(N2CCS(=O)(=O)CC2)c(C(F)(F)F)c1)N1CCc2cc(Oc3cc(Cl)ncn3)ccc21`, the melting point is reported as 248 to 255 °C.
For `Cc1c(I)ccc2c1C(=O)NS2(=O)=O`, the melting point was 257 to 258 °C.
`CCOC(=O)c1cn(-c2c(O)cccc2O)cn1` showed a melting point of 229 to 230 °C.
In the case of `COc1ccc(C2c3c(C)c(N4CCN(c5ccc(OC)cc5)CC4)c(C)c(C)c3OC2(C)C)cc1` (stereo not given), the melting point is reported as 205 to 207 °C.
For `COc1ccccc1N1CCN(C[C@@H](CC2CCCCC2)NC(=O)C2CCCCC2)CC1`, the melting point was 121 to 131 °C.
Work on `CCc1cc(-c2ccc(Cl)cc2)nc2c(C(=O)O)cnn12` yielded a melting point of 227 °C.
With `Cc1ccc(C(=O)OC(C)(C)C)cc1C=O` the melting point was 53 to 55 °C.
With `CCOC(=O)C1=C(C)NN=C(CC)C1c1cccc2ccccc12` (stereo not given) the melting point was 122 °C.
For `C#CCCCOc1c(C)cc(C(=O)O)cc1C`, the melting point was 129 to 130 °C.
`COc1cc(C=Cc2ccc(Cl)cc2)ccc1O` gave a melting point of 121 to 124 °C.
Molecule `Cc1c(C(=O)N[C@H](C)[C@](O)(Cn2cncn2)c2ccc(F)cc2F)cnn1-c1c(Cl)cccc1Cl` has a melting point of 226 to 227 °C.
For `O=C(CN(C(=O)c1cccc(C(F)(F)F)c1)c1ccccc1)Nc1ccc(Cl)c(Cl)c1`, the melting point was 130 to 132 °C.
Work on `Cc1ccc(N(c2ccc(C)cc2)c2ccc(-c3ccc(-c4ccc(N(c5ccc(C)cc5)c5ccc(C)cc5)cc4)cc3)cc2)cc1` yielded a melting point of 232 to 234 °C.
For `CN1CCCN(C2=Nc3cc(Cl)ccc3Nc3ccccc32)CC1`, the melting point was 143 to 145 °C.
`CCc1cccc2c3c([nH]c12)C(CC)(CC(=O)OC)OCC3NC=O` (stereo not given) showed a melting point of 154 to 156 °C.
Work on `CCNc1c(C(=O)OCC)c(C)nc2scnc12` yielded a melting point of 53 to 54 °C.
`O=C(O)c1ccc(S(=O)(=O)Oc2ccc(-c3ccc(-c4c(C(=O)c5ccccc5)oc5ccccc45)cc3)cc2[N+](=O)[O-])cc1O` gave a melting point of 105 to 107 °C.
`CCc1noc(-c2cn(-c3ccc(OC)c(OC)c3)cn2)n1` showed a melting point of 143 °C.
In the case of `Cc1ccc2cccc(OCc3c(Cl)ccc(S(=O)(=O)N(CCCCN)C(C)(C)C)c3Cl)c2n1`, the melting point is reported as 142 to 144 °C.
Molecule `COc1cccc2c1CN(Nc1ccncc1)CC2` has a melting point of 170 to 171 °C.
Molecule `CCOc1ccc([N+](=O)[O-])cc1OC` has a melting point of 88 to 90 °C.
`CC(C)(C)OC(=O)[C@H](Cc1ccc(O)cc1)NC(=O)C12CC3CC(C(=O)N1Cc1ccccc1)C2C3` (stereo not given in full) showed a melting point of 298 to 300 °C.
`N#CC(c1ccccc1)c1cn[nH]c1` (racemic) gave a melting point of 124 to 127 °C.
Molecule `O=C(NC1=NCCS1)c1cnc2c(C(F)(F)F)cccc2c1O` has a melting point of 267 to 268 °C.
In the case of `Nc1ncc2ncn(CCC(CO)CO)c2n1`, the melting point is reported as 154 °C.
`COc1ccc(CN2C(=O)[C@@H](N3C(=O)c4ccccc4C3=O)[C@H]2/C=C/c2ccccc2)c(OC)c1` (relative stereo) showed a melting point of 173 to 177 °C.
`CCOC(=O)Cc1ccccc1N[C@@H](CCC(N)=O)C(=O)O` gave a melting point of 171 to 172 °C.
With `CCOC(=O)N/N=C/c1ccc(OC)c(OC2CCCC2)c1` the melting point was 146 to 147 °C.
`CC(=O)OCC1OC(c2ccc(F)c(Cc3cccs3)c2)C(OC(C)=O)C(OC(C)=O)C1OC(C)=O` (stereo not given) showed a melting point of 119 to 121 °C.
In the case of `COc1ccc(Cn2nc(CO)c3ccccc32)cc1`, the melting point is reported as 95 to 97 °C.
`CCOC(=O)Oc1ccc(C=CC(=O)NC2CCCNC(=O)C2)cc1` (stereo not given) gave a melting point of 209 to 210 °C.
With `Cc1ccc(-c2ccc(C=Cc3ccc(Cl)cc3)s2)s1` the melting point was 157 to 162 °C.
In the case of `O=C(O)c1cc(S(=O)(=O)Cl)cc(S(=O)(=O)Cl)c1O`, the melting point is reported as 185 to 187 °C.
`OC(Cn1ccnc1)(Cn1cncn1)c1ccc(Cl)cc1Cl` (stereo not given) showed a melting point of 169 to 170 °C.
With `CN1C(=O)OC[C@H]1Cc1ccccc1` the melting point was 75 to 77 °C.
In the case of `CC(C)Oc1c(-c2ccc(S(N)(=O)=O)cc2)cnn(CC(F)(F)F)c1=O`, the melting point is reported as 158 to 160 °C.
In the case of `CS(=O)(=O)c1cc([N+](=O)[O-])ccc1OC(F)(F)F`, the melting point is reported as 102 to 104 °C.
Molecule `O=C1c2ccccc2C(=O)N1CCc1cc(-c2ccc(F)cc2)no1` has a melting point of 155 to 156 °C.
In the case of `COc1cc(OC)cc(S(=O)(=O)c2ccc([N+](=O)[O-])cc2)c1`, the melting point is reported as 150 to 152 °C.
Molecule `Cc1cccc2c1-n1nnnc1SC2` has a melting point of 174 °C.
`Cc1cccc2nc(C(C)(C)NC(=O)COC3c4ccccc4-c4ccccc43)oc(=O)c12` gave a melting point of 162 to 163 °C.
Work on `CCc1nc2c(N)nc3ccccc3c2n1CCCS(=O)(=O)N(C)C` yielded a melting point of 209 to 211 °C.
In the case of `NNc1c(F)cc(Cl)c2nc(Cl)sc12`, the melting point is reported as 162 to 180 °C.
`c1ccc2c(CCc3ccncc3)c[nH]c2c1` gave a melting point of 154 to 158 °C.
`CS(=O)(=O)c1nccc(Oc2ccc(NC(=O)c3cc(F)cc(N4CCOCC4)c3)c3ccccc23)n1` showed a melting point of 173 to 175 °C.
`CC(=O)Nc1ccc(-n2ccnc2S(=O)Cc2ccccc2N2CCOCC2)nc1` (stereo not given) gave a melting point of 207 to 209 °C.
With `O=C(OCCCCCCc1ccc(OCc2ccc(Cl)cc2)cc1)c1cccnc1` the melting point was 66 to 67 °C.
Work on `Oc1c(CCCBr)ccc2ccccc12` yielded a melting point of 53 to 55 °C.
With `CCOCc1nc2c(N)nc3cc(-c4ccncc4)ccc3c2n1CC(C)C` the melting point was 211 to 213 °C.
In the case of `COC(=O)C[C@H](O)C[C@H](O)CCc1c(-c2ccc(F)cc2)c(-c2ccc(F)cc2)c(C(=O)Nc2cccc(C(=O)N(C)C)c2)n1C(C)C`, the melting point is reported as 95 to 98 °C.
With `CCCCOc1ccc(S(=O)(=O)N2CCC(N(Cc3ccccc3)CC(O)COc3cccc4[nH]c5ccccc5c34)C2)cc1` (stereo not given) the melting point was 73 to 76 °C.
With `Cc1nc(Sc2ncccc2C(F)(F)F)sc1CC(=O)O` the melting point was 195 to 196 °C.
`CC1(C)CC(c2ccc3ccccc3n2)c2cc(C#N)ccc2O1` (stereo not given) gave a melting point of 174 to 176 °C.
For `COC(=O)C(C)OC(=O)Cc1cc(Oc2ccc(C(F)(F)F)cc2Cl)ccc1[N+](=O)[O-]` (stereo not given), the melting point was 72.1 to 72.9 °C.
`COc1cccc(C(=O)n2c3c(c4ccccc42)CC(C(=O)O)CC3)c1` (stereo not given) gave a melting point of 197 to 200 °C.
For `O=C(c1cccc(-c2ccccc2)c1C(=O)C(Cl)(Cl)Cl)C(Cl)(Cl)Cl`, the melting point was 137 to 152 °C.
For `CN(C)c1ncnc2c1ncn2C1CC(F)C(CO)O1` (stereo not given), the melting point was 105 to 107 °C.
With `COc1cccc2c3c([nH]c12)CCNC3=O` the melting point was 255 to 258 °C.
With `Cc1cc2oc(-c3ccccn3)nc2cc1N=C=S` the melting point was 192 to 194 °C.
Molecule `CO[C@]12C[C@@H](CN3CCC(O)(c4cccc(C(F)(F)F)c4)CC3)CN(C)[C@@H]1Cc1c[nH]c3cccc2c13` has a melting point of 135 to 140 °C.
In the case of `O=C1CCCCC1c1ccccc1F` (stereo not given), the melting point is reported as 47 to 49 °C.
Work on `CCOC(=O)c1oc2ccc(Cl)cc2c1CN(C)CC(OC)OC` yielded a melting point of 58 to 60 °C.
Molecule `CCOC(=O)c1cn([C@@H]2C[C@@H]2F)c2c(C)c(F)ccc2c1=O` has a melting point of 187 to 188 °C.
Work on `COc1cc(N2CCN(C[C@H](C)O)CC2)ccc1Nc1ncc2ccc(-c3ccccc3OC)n2n1` yielded a melting point of 76 to 85 °C.
With `O=C(c1ccccc1)c1cc(Oc2cc(Cl)cc(Cl)c2)c2c(=O)c3ccccc3sc2c1` the melting point was 160 to 163 °C.
In the case of `OC(CCCCCOc1ccccc1)c1cccc(OCc2ccc3ccccc3n2)c1` (stereo not given), the melting point is reported as 83 to 84.5 °C.
For `CCOC(=O)OC1=C(c2cc(C)ccc2C)C(=O)N(OCOC)C12CCN(OC)CC2`, the melting point was 109 to 111 °C.
`Nc1ccc(Sc2ncccn2)cc1` gave a melting point of 124 to 126 °C.
With `COc1ccc(C2(C#N)CCC(=CC(=O)O)CC2)c2c1OCCO2` (stereo not given) the melting point was 203 to 204 °C.
Work on `COC(=O)c1[nH]cc(C(=O)NCc2ccc(F)cc2)c(=O)c1OC` yielded a melting point of 242 to 244 °C.
With `O=C(OSc1ccccn1)c1ccc(Cc2ccc(F)cc2)o1` the melting point was 88 to 89 °C.
With `CNC(=O)OC(C)C(=O)Nc1ccc(C2=NNC(=O)CC2C)cc1` (stereo not given) the melting point was 96 to 98 °C.
`O=C(NCc1ccc(Cl)cc1)c1cnc2c(O)cccc2c1O` gave a melting point of 319 to 320 °C.
With `Cc1nc(-c2ccc(C(F)(F)F)cc2)sc1Sc1ccc(Cc2nn[nH]n2)cc1` the melting point was 177 °C.
For `O=Cc1cc2c3ccccc3ccc2c2ccccc12`, the melting point was 167 to 169 °C.
`ON=CNc1nc(OCc2ccc(F)cc2)ncc1F` gave a melting point of 169 to 171 °C.
For `O=C(Nc1nc2ccc(Sc3nnc4ccc(-c5cnn(CCOC6CCCCO6)c5)cn34)cc2s1)C1CC1` (stereo not given), the melting point was 110 °C.
Work on `CCOC(=O)C(Cc1cccc(OCC(F)(F)F)c1)C(=O)c1ccc(F)cc1` (stereo not given) yielded a melting point of 48 to 49 °C.
Molecule `CCCCP(=O)(O)CC(C)(O)CN` (stereo not given) has a melting point of 187 to 189 °C.
For `COc1cccc(OC)c1-c1ccc(C[C@H](NC(=O)c2c(Cl)cc(F)cc2Cl)C(=O)O)cc1`, the melting point was 206 to 207 °C.
With `O=C1CCN(C(=O)c2cccs2)CC1` the melting point was 81 to 83 °C.

From a melting point compilation (Tetko et al.; mined from patent text by program, amines drawn as free bases though some values may be those of a salt)
